{"source": "patent US10336739B2", "about": "“4-hydroxy-3-(heteroaryl)pyridine-2-one APJ agonists” (BRISTOL-MYERS SQUIBB COMPANY, priority 2015, dated 2019)", "note": "pEC50: −log10 of the molar value.", "data": [{"biological_target": "human APJ receptor (Homo sapiens (Human), UniProt P35414)", "sequence (P35414 whole entry)": "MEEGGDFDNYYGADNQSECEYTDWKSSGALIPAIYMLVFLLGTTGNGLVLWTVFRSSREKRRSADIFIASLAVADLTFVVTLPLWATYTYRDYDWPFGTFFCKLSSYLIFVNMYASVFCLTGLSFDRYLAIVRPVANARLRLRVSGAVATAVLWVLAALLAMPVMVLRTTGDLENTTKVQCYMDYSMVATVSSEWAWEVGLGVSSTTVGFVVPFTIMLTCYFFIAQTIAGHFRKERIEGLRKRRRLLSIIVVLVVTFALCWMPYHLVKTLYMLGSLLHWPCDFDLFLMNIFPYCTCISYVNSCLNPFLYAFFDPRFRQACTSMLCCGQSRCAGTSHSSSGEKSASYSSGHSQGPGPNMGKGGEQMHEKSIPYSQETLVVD", "experiment": "Intracellular cAMP accumulation assay (APJ hcAMP, HTRF)", "assay_type": "cell-based", "conditions": "HEK293 cells stably expressing human APJ receptor; inhibition of forskolin-mediated cAMP production; read-out: Human APJ cAMP EC50 Potency range", "in_short": "(§1)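 cAMP inhibition was quantified by HTRF against a cAMP standard curve, with EC50 fitted to a variable-slope sigmoidal curve. Compounds acted on 5,000 APJ-stable HEK293 cells for 30 minutes at room temperature alongside 2 μM forskolin and […] IBMX. Detection reagents were incubated 60 min.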", "values": [{"smiles": "CCOCc1nc(O)c(-c2nnc(Cc3noc4ccccc34)s2)c(O)c1-c1c(OC)cccc1OC", "note": "[Example 231, 3-{5-[(1,2-benzoxazol-3-yl)methyl]-1,3,4-thiadiazol-2-yl}-5-(2,6-dimethoxyphenyl)-6-(ethoxymethyl)pyridine-2,4-diol]", "pEC50": "7.00 to 8.00"}]}, {"biological_target": "human APJ receptor (Homo sapiens (Human), UniProt P35414)", "experiment": "Intracellular cAMP accumulation assay (APJ hcAMP, HTRF)", "assay_type": "cell-based", "conditions": "HEK293 cells stably expressing human APJ receptor; inhibition of forskolin-mediated cAMP production; read-out: hAPJ cAMP EC50 (nM) Potency range", "in_short": "as §1", "units": {"EC50": "nM"}, "values": [{"smiles": "CCOCc1nc(O)c(-c2nnc(CNc3ccccc3)o2)c(O)c1-c1c(OC)cccc1OC", "note": "[Example 243, 5-(2,6-dimethoxyphenyl)-6-(ethoxymethyl)-3-{5-[(phenylamino)methyl]-1,3,4-oxadiazol-2-yl}pyridine-2,4-diol]", "EC50": "10 to 100"}, {"smiles": "CCCCc1nc(O)c(-c2nnc(CC(=O)NCc3cccc(Cl)c3)o2)c(O)c1-c1c(OC)cccc1OC", "note": "[Example 259, 2-{5-[6-butyl-5-(2,6-dimethoxyphenyl)-2,4-dihydroxy-pyridin-3-yl]-1,3,4-oxadiazol-2-yl}-N-[(3-chlorophenyl)methyl]acetamide]", "EC50": "0.01 to 10"}, {"smiles": "CCOCc1nc(O)c(-c2nnc(Cc3ncc(Cl)cc3F)o2)c(O)c1-c1c(OC)cccc1OC", "note": "[Example 237, 3-{5-[(5-chloro-3-fluoropyridin-2-yl)methyl]-1,3,4-oxadiazol-2-yl}-5-(2,6-dimethoxyphenyl)-6-(ethoxymethyl) pyridine-2,4-diol]", "EC50": "0.01 to 10"}, {"smiles": "CCOCc1nc(O)c(-c2nnc(CC(=O)Nc3nccs3)o2)c(O)c1-c1c(OC)cccc1OC", "note": "[Example 253, 2-{5-[5-(2,6-dimethoxyphenyl)-6-(ethoxymethyl)-2,4-dihydroxypyridin-3-yl]-1,3,4-oxadiazol-2-yl}-N-(1,3-thiazol-2-yl)acetamide]", "EC50": "0.01 to 10"}]}, {"biological_target": "human APJ receptor (Homo sapiens (Human), UniProt P35414)", "experiment": "Intracellular cAMP accumulation assay (APJ hcAMP, HTRF)", "assay_type": "cell-based", "conditions": "HEK293 cells stably expressing human APJ receptor; inhibition of forskolin-mediated cAMP production; read-out: hAPJ cAMP EC50 Potency range", "in_short": "as §1", "values": [{"smiles": "CCCCc1nc(O)c(-c2nnc(CC(=O)N(C)C)o2)c(O)c1-c1c(OC)cccc1OC", "note": "[Example 182, 2-{5-[6-butyl-5-(2,6-dimethoxyphenyl)-2,4-dihydroxypyridin-3-yl]-1,3,4-oxadiazol-2-yl}-N,N-dimethylacetamide]", "pEC50": "8.00 to 11.00"}, {"smiles": "CCCCc1nc(O)c(-c2nnc(Cc3ccc(F)cc3)o2)c(O)c1-c1c(OC)cccc1OC", "note": "[Example 32, 6-butyl-5-(2,6-dimethoxyphenyl)-3-{5-[(4-fluorophenyl)methyl]-1,3,4-oxadiazol-2-yl}pyridine-2,4-diol]", "pEC50": "8.00 to 11.00"}, {"smiles": "CCCCc1nc(O)c(-c2nnc(Cc3ccccc3)o2)c(O)c1-c1c(OC)cc(C)cc1OC", "note": "[Example 2, 3-(5-benzyl-1,3,4-oxadiazol-2-yl)-6-butyl-5-(2,6-dimethoxy-4-methylphenyl) pyridine-2,4-diol]", "pEC50": "6.52 to 7.00"}, {"smiles": "CCCCc1nc(O)c(-c2nnc(Cc3ccc(F)c(Cl)c3)o2)c(O)c1-c1c(OC)cccc1OC", "note": "[Example 70, 6-butyl-3-{5-[(3-chloro-4-fluorophenyl)methyl]-1,3,4-oxadiazol-2-yl}-5-(2,6-dimethoxyphenyl) pyridine-2,4-diol]", "pEC50": "8.00 to 11.00"}, {"smiles": "CCCCc1nc(O)c(-c2nnc(C(F)(F)c3ccccc3)o2)c(O)c1-c1c(OC)cccc1OC", "note": "[Example 24, 6-butyl-3-{5-[difluoro(phenyl)methyl]-1,3,4-oxadiazol-2-yl}-5-(2,6-dimethoxyphenyl) pyridine-2,4-diol]", "pEC50": "7.00 to 8.00"}, {"smiles": "CCCCc1nc(O)c(-c2nnc(Cc3ccc(F)c(F)c3)o2)c(O)c1-c1cccc(OC(F)(F)F)c1", "note": "[Example 141, 6-butyl-3-{5-[(3,4-difluorophenyl)methyl]-1,3,4-oxadiazol-2-yl}-5-[3-(trifluoromethoxy)phenyl]pyridine-2,4-diol]", "pEC50": "7.00 to 8.00"}, {"smiles": "CCCCc1nc(O)c(-c2nnc(Cc3ccc(F)c(F)c3)o2)c(O)c1-c1cccc(CO)c1", "note": "[Example 143, 6-butyl-3-{5-[(3,4-difluorophenyl)methyl]-1,3,4-oxadiazol-2-yl}-5-[3-(hydroxymethyl)phenyl]pyridine-2,4-diol]", "pEC50": "8.00 to 11.00"}, {"smiles": "CCOCc1nc(O)c(-c2nnc(Cn3ccnc3)o2)c(O)c1-c1c(OC)cccc1OC", "note": "[Example 125, 5-(2,6-dimethoxyphenyl)-6-(ethoxymethyl)-3-[5-(1H-imidazol-1-ylmethyl)-1,3,4-oxadiazol-2-yl]pyridine-2,4-diol]", "pEC50": "7.00 to 8.00"}, {"smiles": "CCCCc1nc(O)c(-c2nnc(Cc3c(C)n[nH]c3C)o2)c(O)c1-c1c(OC)cccc1OC", "note": "[Example 36, 6-butyl-5-(2,6-dimethoxyphenyl)-3-{5-[(3,5-dimethyl-1H-pyrazol-4-yl)methyl]-1,3,4-oxadiazol-2-yl}pyridine-2,4-diol]", "pEC50": "7.00 to 8.00"}, {"smiles": "CCCCc1nc(O)c(-c2nnc(Cc3noc4ccccc34)o2)c(O)c1-c1c(OC)ccc(F)c1OC", "note": "(single isomer, unassigned; isomer 1) [Example 220, 3-[5-(1,2-benzoxazol-3-ylmethyl)-1,3,4-oxadiazol-2-yl]-6-butyl-5-(3-fluoro-2,6-dimethoxyphenyl) pyridine-2,4-diol (isomer 1)]", "pEC50": "7.00 to 8.00"}, {"smiles": "CCCCc1nc(O)c(-c2nnc(Cc3nc(-c4cccnc4)no3)o2)c(O)c1-c1c(OC)cccc1OC", "note": "[Example 101, 6-butyl-5-(2,6-dimethoxyphenyl)-3-(5-{[3-(pyridin-3-yl)-1,2,4-oxadiazol-5-yl]methyl}-1,3,4-oxadiazol-2-yl)pyridine-2,4-diol]", "pEC50": "8.00 to 11.00"}, {"smiles": "CCCCc1nc(O)c(-c2nnc(CNC(=O)c3cccc(Cl)c3)o2)c(O)c1-c1c(OC)cccc1OC", "note": "[Example 162, N-({5-[6-butyl-5-(2,6-dimethoxyphenyl)-2,4-dihydroxypyridin-3-yl]-1,3,4-oxadiazol-2-yl}methyl)-3-chlorobenzamide]", "pEC50": "8.00 to 11.00"}, {"smiles": "CCCCc1nc(O)c(-c2nnc(CC(=O)OCC)o2)c(O)c1-c1c(OC)cccc1OC", "note": "[Example 96, ethyl 2-{5-[6-butyl-5-(2,6-dimethoxyphenyl)-2,4-dihydroxypyridin-3-yl]-1,3,4-oxadiazol-2-yl}acetate]", "pEC50": "7.00 to 8.00"}, {"smiles": "CCCCc1nc(O)c(-c2nnc(CN3CCCCC3)o2)c(O)c1-c1c(OC)cccc1OC", "note": "[Example 100, 6-butyl-5-(2,6-dimethoxyphenyl)-3-[5-(piperidin-1-ylmethyl)-1,3,4-oxadiazol-2-yl]pyridine-2,4-diol]", "pEC50": "7.00 to 8.00"}, {"smiles": "CCCCc1nc(O)c(-c2nnc(-c3ccccc3Cl)o2)c(O)c1-c1c(OC)cccc1OC", "note": "[Example 11, 6-butyl-3-[5-(2-chlorophenyl)-1,3,4-oxadiazol-2-yl]-5-(2,6-dimethoxyphenyl) pyridine-2,4-diol]", "pEC50": "6.52 to 7.00"}, {"smiles": "CCCCc1nc(O)c(-c2nnc(COc3ccc(F)c(F)c3)o2)c(O)c1-c1c(OC)cccc1OC", "note": "[Example 76, 6-butyl-3-[5-(3,4-difluorophenoxy-methyl)-1,3,4-oxadiazol-2-yl]-5-(2,6-dimethoxyphenyl) pyridine-2,4-diol]", "pEC50": "7.00 to 8.00"}, {"smiles": "CCCCc1nc(O)c(-c2nnc(Cc3ccc(OC(F)(F)F)cc3)o2)c(O)c1-c1c(OC)cccc1OC", "note": "[Example 56, 6-butyl-5-(2,6-dimethoxyphenyl)-3-(5-{[4-(trifluoromethoxy)phenyl]methyl}-1,3,4-oxadiazol-2-yl)pyridine-2,4-diol]", "pEC50": "8.00 to 11.00"}, {"smiles": "CCCCc1nc(O)c(-c2nnc(CCc3nc4ccccc4s3)o2)c(O)c1-c1c(OC)cccc1OC", "note": "[Example 82, 3-{5-[2-(1,3-benzothiazol-2-yl)ethyl]-1,3,4-oxadiazol-2-yl}-6-butyl-5-(2,6-dimethoxyphenyl) pyridine-2,4-diol]", "pEC50": "8.00 to 11.00"}, {"smiles": "CCCCc1nc(O)c(-c2nnc(Cc3cc(C)no3)o2)c(O)c1-c1c(OC)cccc1OC", "note": "[Example 51, 6-butyl-5-(2,6-dimethoxyphenyl)-3-{5-[(3-methyl-1,2-oxazol-5-yl)methyl]-1,3,4-oxadiazol-2-yl}pyridine-2,4-diol]", "pEC50": "8.00 to 11.00"}, {"smiles": "CCOCc1nc(O)c(-c2nnc(Cn3ccccc3=O)o2)c(O)c1-c1c(OC)cccc1OC", "note": "[Example 119, 1-({5-[5-(2,6-dimethoxyphenyl)-6-(ethoxymethyl)-2,4-dihydroxypyridin-3-yl]-1,3,4-oxadiazol-2-yl}methyl)-1,2-dihydropyridin-2-one]", "pEC50": "8.00 to 11.00"}, {"smiles": "CCCCc1nc(O)c(-c2nnc(Cc3ccc(Cl)nc3)o2)c(O)c1-c1c(OC)cccc1OC", "note": "[Example 30, 6-butyl-3-{5-[(6-chloropyridin-3-yl)methyl]-1,3,4-oxadiazol-2-yl}-5-(2,6-dimethoxyphenyl) pyridine-2,4-diol]", "pEC50": "8.00 to 11.00"}, {"smiles": "CCCCc1nc(O)c(-c2nnc(Cc3cccc(Cl)c3)o2)c(O)c1-c1c(OC)cccc1OC", "note": "[Example 23, 6-butyl-3-{5-[(3-chlorophenyl)methyl]-1,3,4-oxadiazol-2-yl}-5-(2,6-dimethoxyphenyl) pyridine-2,4-diol]", "pEC50": "8.00 to 11.00"}, {"smiles": "CCCCc1nc(O)c(-c2nnc(CN3CCCC3=O)o2)c(O)c1-c1c(OC)cccc1OC", "note": "[Example 105, 1-({5-[6-butyl-5-(2,6-dimethoxyphenyl)-2,4-dihydroxypyridin-3-yl]-1,3,4-oxadiazol-2-yl}methyl) pyrrolidin-2-one]", "pEC50": "8.00 to 11.00"}, {"smiles": "CCCCc1nc(O)c(-c2nnc(Cc3ccc(C(F)(F)F)cc3)o2)c(O)c1-c1c(OC)cccc1OC", "note": "[Example 80, 6-butyl-5-(2,6-dimethoxyphenyl)-3-(5-{[4-(trifluoromethyl)phenyl]methyl}-1,3,4-oxadiazol-2-yl)pyridine-2,4-diol]", "pEC50": "8.00 to 11.00"}, {"smiles": "CCCCc1nc(O)c(-c2nnc(Cc3noc4ccccc34)o2)c(O)c1-c1ccccc1", "note": "[Example 138, 3-[5-(1,2-benzoxazol-3-ylmethyl)-1,3,4-oxadiazol-2-yl]-6-butyl-5-phenylpyridine-2,4-diol]", "pEC50": "7.00 to 8.00"}]}, {"biological_target": "human APJ receptor (Homo sapiens (Human), UniProt P35414)", "experiment": "Intracellular cAMP accumulation assay (APJ hcAMP, HTRF)", "assay_type": "cell-based", "conditions": "hAPJ cAMP EC50 Potency range (nM), HEK293 cells stably expressing human APJ receptor; inhibition of forskolin-mediated cAMP production", "in_short": "as §1", "units": {"EC50": "nM"}, "values": [{"smiles": "CCCCc1nc(O)c(-c2nnc(CC(=O)N3CCN(C)CC3)o2)c(O)c1-c1c(OC)cccc1OC", "note": "[Example 185, 2-{5-[6-butyl-5-(2,6-dimethoxyphenyl)-2,4-dihydroxypyridin-3-yl]-1,3,4-oxadiazol-2-yl}-1-(4-methylpiperazin-1-yl)ethan-1-one]", "EC50": "10 to 100"}]}]}
